The target in one assay is T1, BRD4 (BDI_K57-E168) (Homo sapiens, UniProt O60885).
T1 construct: BD1: amino acids K57-E168; made in house
Briefly: TR-FRET bromodomain binding assay, BRD4 first bromodomain. The settings on record: His-tagged BRD4 BD1, 100 nM Alexa647 probe; Ki calculated from IC50, probe Kd and probe concentration. As to the method: (§1) A time-resolved fluorescence resonance energy transfer (TR-FRET) assay was used to determine the affinities of compounds of the Examples listed in Table 1 for each bromodomain of BRD4. His-tagged first (BD1: amino acids K57-E168) and second (BD2: amino acids E352-E168) bromodomains of BRD4 were expressed and purified. An Alexa647-labeled BET-inhibitor was used as the fluorescent probe in the assay.
(§2) Compound dilution series were prepared in DMSO via a 3-fold serial dilution from 2.5 mM to 42 nM. Compounds were then diluted 6:100 in assay buffer (20 mM Sodium Phosphate, pH 6.0, 50 mM NaCl, 1 mM Ethylenediaminetetraacetic acid disodium salt dihydrate, 0.01% Triton X-100, 1 mM DL-Dithiothreitol) to yield 3× working solutions. Six microliters (μL) of the working solution was then transferred to white, low-volume assay plates (Costar #3673). A 1.5× assay mixture containing His-tagged bromodomain, Europium-conjugated anti-His antibody (Invitrogen PV5596) and the Alexa-647-conjugated probe molecule was also prepared. Twelve μL of this solution were added to the assay plate to reach a final volume of 18 μL. The final concentration of 1× assay buffer contains 2% DMSO, 50 μM-0.85 nM compound, 8 nM His-tagged bromodomain, 1 nM Europium-conjugated anti-His-tag antibody and 100 nM or 30 nM probe (for BDI or BDII, respectively). After a one-hour incubation at room temperature, TR-FRET ratios were determined using an Envision multilabel plate reader (Ex 340, Em […]).
(§3) TR-FRET data were normalized to the means of 24 no-compound controls (“high”) and 8 controls containing 1 μM un-labeled probe (“low”). […] Inhibition constants (Ki) were calculated from the IC50s, probe Kd and probe concentration. […] The minimum significant ratio was determined to evaluate assay reproducibility (Eastwood et al., (2006) J Biomol Screen, 11: 253-261). The MSR was determined to be 2.03 for BDI and 1.93 for BDII, and a moving MSR (last six run MSR overtime) for both BDI and BDII was typically <3.

A further assay has as its target T2, BRD4 (BDII_E352-M457) (Homo sapiens, UniProt O60885).
T2 construct: made in house
The assay can be described thus: TR-FRET bromodomain binding assay, BRD4 second bromodomain. The settings on record: His-tagged BRD4 BD2, 30 nM Alexa647 probe; Ki calculated from IC50, probe Kd and probe concentration. As to the method: as §1, §2, §3

Assay [1] relates to breast cancer cell line MX-1. The assay can be described thus: MX-1 cell line proliferation assay, Method A. The format is cell-based. The settings on record: Homo sapiens, MX1; MX-1 cells, 96-well, 72 hours, Cell Titer Glo; read-out: Cellular proliferation: EC50 Method A. The essentials: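 MX-1 breast cancer cells (5000/well) were attached overnight in RPMI 1640 with 10% FBS, then exposed for 3 days to compound at 0.0001–3 μM final. Cell Titer Glo luminescence was normalized to DMSO controls, and EC50s were obtained by sigmoidal fitting.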
(In general: In ATP-based viability assays light output follows the ATP content of the culture.)

The subject of assay [2] is breast cancer cell line MX-1. The assay can be described thus: MX-1 cell line proliferation assay, Method B. As to conditions: Homo sapiens, MX1; MX-1 cells, 384-well, 72 hours, Cell Titer Glo; read-out: Cellular proliferation: EC50 Method B. The format is cell-based. As to the method:
The impact of compounds of the Examples on cancer cell proliferation was determined using the breast cancer cell line MX-1 (ATCC) in a 3-day proliferation assay and the data are reported in Table 1.
MX-1 cells were maintained in RPMI 1640 medium (Sigma) supplemented with 10% FBS at 37° C. and an atmosphere of 5% CO2. For compound testing, MX-1 cells were plated in 384-well white with clear, flat bottom plates at a density of 750 cells/well in 25 μL of culture media and incubated at 370 overnight to allow cell adhesion and spreading. Ten point compound dilution series were prepared in DMSO via a 3-fold serial dilution from either 10 μM or 1 μM stock and added directly to the appropriate wells of the MX-1 cell plate by an ECHO liquid handler (Labcyte). The final compound concentrations in the wells were 10, 3.25, 1, 0.25, 0.124, 0.040, 0.0124, 0.0031, 0.0015 and 0.0005 μM or 1, 0.33, 0.1, 0.025, 0.0124, 0.004, 0.0012, 0.0003, 0.00015, 0.00005 μM, depending on the concentration of the compound stock solution.
Luminescence readings from the Cell Titer Glo assay were normalized to the DMSO treated cells and analyzed using Accelrys Assay Explorer 3.3 software with sigmoidal curve fitting to obtain EC50s. The minimum significant ratio (MSR) was determined to evaluate assay reproducibility (Eastwood et al., (2006) J Biomol Screen, 11: 253-261). The overall MSR was determined to be 3.3 and a moving MSR (last six run MSR overtime) has averaged 2.1.

The structures appear in SMILES notation.

In the case of `CCS(=O)(=O)c1ccc(OCC2CC2(F)F)c(-c2cn(C)c(=O)c3[nH]c(CN4CCN(c5ncccn5)CC4)cc23)c1` (stereo not shown) [Example 19, 4-{2-[(2,2-difluorocyclopropyl)methoxy]-5-(ethylsulfonyl)phenyl}-6-methyl-2-{[4-(pyrimidin-2-yl)piperazin-1-yl]methyl}-1,6-dihydro-7H-pyrrolo[2,3-c]pyridin-7-one], the Ki (usually the dissociation constant of the complex between target and ligand, obtained from inhibition or displacement) on BRD4 (BDI_K57-E168) is 6.1 nM; at BRD4 (BDII_E352-M457) it was 62 nM.

On to `COc1ccc(S(=O)(=O)Nc2cccc(Oc3ccc(S(C)(=O)=O)cc3-c3cn(C)c(=O)c4[nH]ccc34)c2)cc1OC` [Example 53, 3,4-dimethoxy-N-{3-[2-(6-methyl-7-oxo-6,7-dihydro-1H-pyrrolo[2,3-c]pyridin-4-yl)-4-(methylsulfonyl)phenoxy]phenyl}benzenesulfonamide], for which the Ki at BRD4 (BDI_K57-E168) is 3.4 nM; at BRD4 (BDII_E352-M457), 1 nM. Besides, the EC50 in assay [1] was found to be 144 nM.

For `Cc1cccc(C)c1Oc1ccc(S(C)(=O)=O)cc1-c1cn(C)c(=O)c2[nH]c(-c3nc(C4CCOCC4)no3)cc12` [Example 141, 4-[2-(2,6-dimethylphenoxy)-5-(methylsulfonyl)phenyl]-6-methyl-2-[3-(tetrahydro-2H-pyran-4-yl)-1,2,4-oxadiazol-5-yl]-1,6-dihydro-7H-pyrrolo[2,3-c]pyridin-7-one], in assay [2], the EC50 is 443 nM.

`Cc1cccc(C)c1Oc1ccc(S(C)(=O)=O)cc1-c1cn(C)c(=O)c2[nH]c(-c3nc(-c4cscn4)no3)cc12` [Example 142, 4-[2-(2,6-dimethylphenoxy)-5-(methylsulfonyl)phenyl]-6-methyl-2-[3-(1,3-thiazol-4-yl)-1,2,4-oxadiazol-5-yl]-1,6-dihydro-7H-pyrrolo[2,3-c]pyridin-7-one]: in assay [2], the EC50 turned out to be 615 nM.

Turning to `CCN(CC)C(C)(C)CNC(=O)c1cc2c(-c3cc(S(C)(=O)=O)ccc3Oc3c(C)cccc3C)cn(C)c(=O)c2[nH]1` [Example 143, N-[2-(diethylamino)-2-methylpropyl]-4-[2-(2,6-dimethylphenoxy)-5-(methylsulfonyl)phenyl]-6-methyl-7-oxo-6,7-dihydro-1H-pyrrolo[2,3-c]pyridine-2-carboxamide], in assay [2], the EC50 turned out to be 532 nM.

For the compound `CCN(CC)CCCCNC(=O)c1cc2c(-c3cc(S(C)(=O)=O)ccc3Oc3c(C)cccc3C)cn(C)c(=O)c2[nH]1` [Example 144, N-[4-(diethylamino)butyl]-4-[2-(2,6-dimethylphenoxy)-5-(methylsulfonyl)phenyl]-6-methyl-7-oxo-6,7-dihydro-1H-pyrrolo[2,3-c]pyridine-2-carboxamide], in assay [2], the EC50 was determined as 498 nM.

In the case of `CCNC(=O)c1cc2c(-c3cc(S(=O)(=O)CC)ccc3Oc3c(C)cccc3CN3CCOCC3)cn(C)c(=O)c2[nH]1` [Example 146, N-ethyl-4-{5-(ethylsulfonyl)-2-[2-methyl-6-(morpholin-4-ylmethyl)phenoxy]phenyl}-6-methyl-7-oxo-6,7-dihydro-1H-pyrrolo[2,3-c]pyridine-2-carboxamide], in assay [2], the EC50 was determined as 9320 nM.

With `CCNC(=O)c1cc2c(-c3cc(S(=O)(=O)CC)ccc3Oc3c(C)cccc3CN3CCCCC3)cn(C)c(=O)c2[nH]1` [Example 147, N-ethyl-4-{5-(ethylsulfonyl)-2-[2-methyl-6-(piperidin-1-ylmethyl)phenoxy]phenyl}-6-methyl-7-oxo-6,7-dihydro-1H-pyrrolo[2,3-c]pyridine-2-carboxamide], the EC50 in assay [2] amounted to 6320 nM.

`CCNC(=O)c1cc2c(-c3cc(S(=O)(=O)CC)ccc3Oc3c(C)cccc3CCc3ccccc3)cn(C)c(=O)c2[nH]1` [Example 148, N-ethyl-4-{5-(ethylsulfonyl)-2-[2-methyl-6-(2-phenylethyl)phenoxy]phenyl}-6-methyl-7-oxo-6,7-dihydro-1H-pyrrolo[2,3-c]pyridine-2-carboxamide]: the EC50 in assay [2] was 1680 nM.

Regarding `CCS(=O)(=O)c1ccc(OC2CCCCC2)c(-c2cn(C)c(=O)c3[nH]c(-c4cnn(C5CCNCC5)c4)cc23)c1` [Example 149, 4-[2-(cyclohexyloxy)-5-(ethylsulfonyl)phenyl]-6-methyl-2-[1-(piperidin-4-yl)-1H-pyrazol-4-yl]-1,6-dihydro-7H-pyrrolo[2,3-c]pyridin-7-one], the EC50 in assay [2] came to 1.18 nM.

`CCNC(=O)c1cc2c(-c3cc(S(=O)(=O)CC)ccc3Oc3c(C)cccc3Cn3ccnc3)cn(C)c(=O)c2[nH]1` [Example 150, N-ethyl-4-{5-(ethylsulfonyl)-2-[2-(1H-imidazol-1-ylmethyl)-6-methylphenoxy]phenyl}-6-methyl-7-oxo-6,7-dihydro-1H-pyrrolo[2,3-c]pyridine-2-carboxamide]: in assay [2], the EC50 was over 10000 nM.

Consider `CCNC(=O)c1cc2c(-c3cc(S(=O)(=O)CC)ccc3Oc3c(C)cccc3CN3CCCS3(=O)=O)cn(C)c(=O)c2[nH]1` [Example 152, 4-[2-{2-[(1,1-dioxido-1,2-thiazolidin-2-yl)methyl]-6-methylphenoxy}-5-(ethylsulfonyl)phenyl]-N-ethyl-6-methyl-7-oxo-6,7-dihydro-1H-pyrrolo[2,3-c]pyridine-2-carboxamide], for which, in assay [2], the EC50 came out at 8140 nM.

For the compound `CCNC(=O)c1cc2c(-c3ccc(C(=O)N(CC(=O)NC)Cc4ccccn4)cc3Oc3c(C)cccc3C)cn(C)c(=O)c2[nH]1` [Example 153, 4-[2-(2,6-dimethylphenoxy)-4-{[2-(methylamino)-2-oxoethyl](pyridin-2-ylmethyl)carbamoyl}phenyl]-N-ethyl-6-methyl-7-oxo-6,7-dihydro-1H-pyrrolo[2,3-c]pyridine-2-carboxamide], in assay [2], the EC50 is over 10000 nM.

On to `Cn1cc(-c2cc(S(C)(=O)=O)ccc2Oc2ccc(F)cc2F)c2cc(CN3CC(n4cncn4)C3)[nH]c2c1=O` [Example 156, 4-[2-(2,4-difluorophenoxy)-5-(methylsulfonyl)phenyl]-6-methyl-2-{[3-(1H-1,2,4-triazol-1-yl)azetidin-1-yl]methyl}-1,6-dihydro-7H-pyrrolo[2,3-c]pyridin-7-one], for which, in assay [2], the EC50 is 332 nM.

In the case of `Cn1cc(-c2cc(S(C)(=O)=O)ccc2Oc2ccc(F)cc2F)c2cc(CNCCC(N)=O)[nH]c2c1=O` [Example 159, 3-[({4-[2-(2,4-difluorophenoxy)-5-(methylsulfonyl)phenyl]-6-methyl-7-oxo-6,7-dihydro-1H-pyrrolo[2,3-c]pyridin-2-yl}methyl)amino]propanamide], in assay [2], the EC50 came to 599 nM.

As to `CCNC(=O)c1cc2c(-c3ccc(C(=O)N(CCCN4CCOCC4)Cc4ccccc4)cc3Oc3c(C)cccc3C)cn(C)c(=O)c2[nH]1` [Example 161, 4-[4-{benzyl[3-(morpholin-4-yl)propyl]carbamoyl}-2-(2,6-dimethylphenoxy)phenyl]-N-ethyl-6-methyl-7-oxo-6,7-dihydro-1H-pyrrolo[2,3-c]pyridine-2-carboxamide], the EC50 in assay [2] is 1950 nM.
